The subject of this assay is MIN6 insulin promoter-GFP reporter, high-content imaging. The assay is described as follows: insulin promoter activators in MIN6 cells, imaging, high-content screening, mouse beta cells (AID 1625).

Drawing on PubChem BioAssay AID1625 (Sanford-Burnham Center for Chemical Genomics, 2009), this text covers EC50 for 85 compounds.

Each structure is given as a SMILES string. Active and inactive are the calls of the source.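 The calls were made as follows: active = z-score above 3 at 5 µM with at least 500 cells counted in the well; inconclusive = wells under 500 cells, flagged as cytotoxic or low count; inactive = the rest.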

By EC50 is commonly meant the midpoint of the concentration-response curve. `CN1/C(=C/C=C(C#N)C#N)C=Cc2ccccc21`: the EC50 is > 16 µM (inactive).
The value for `CCOC(=O)c1sc2cc([N+](=O)[O-])cc(SCC(C)C)c2c1N` was > 16 µM (inactive); that for `CNC(=O)c1c(NC(=O)c2ccc(S(=O)(=O)N3CCCc4ccccc43)cc2)sc2c1CCN(C)C2` was > 16 µM (inactive); that for `CN1CCN(c2ccc(/C=C3\C(=O)NC(=S)N(c4cccc(Br)c4)C3=O)o2)CC1` was > 16 µM (inactive).
Then `CN1/C(=C\C=C2/SC(=S)NC2=O)C(C)(C)c2ccccc21`, with 9.29 µM; and `CC(=O)Nc1ccc(N=Cc2c(O)c(C(=O)Nc3ccccc3)cc3ccccc23)cc1`, with > 16 µM (inactive); and `Nc1c(C(=O)N/N=C/c2ccccc2Cl)oc2nc(-c3ccccc3)cc(-c3ccco3)c12`, with > 16 µM (inactive).
Then `O=[N+]([O-])c1ccc(N/N=C/c2c[nH]c3ccccc23)cc1`, with 10.8 µM (inactive).
For `CN1CC=C2C(C#N)=C(N)C(C#N)(C#N)C(Cc3ccccc3)C2C1` (stereo not given), the EC50 is 11.7 µM (inactive).
Turning to `COc1cc2c(cc1OC)C1=CC(=O)C(=O)N1C(C)(C)C2`, the EC50 is 11.5 µM (inactive).
The value for `Cc1ccc(NS(=O)(=O)c2cc([N+](=O)[O-])ccc2N/N=C/c2sc(N3CCOCC3)nc2-c2ccccc2)c(C)c1` was > 16 µM (inactive); that for `CC(C)N1CCc2c(sc(NC(=O)c3cc4cc([N+](=O)[O-])ccc4s3)c2C(N)=O)C1` was > 16 µM (inactive); that for `CC(=O)c1sc2nc(-c3cccs3)cc(C(F)(F)F)c2c1N` was 7.56 µM.
Then `COc1cc(N2CCCC2)c(OC)cc1/C=C1/NC(=S)NC1=O`, with 4.73 µM; and `COc1ccc(C(=O)c2sc3nc(-c4ccccc4)ccc3c2N)cc1OC`, with > 16 µM (inactive); and `Oc1ccc(/C=N/Nc2ccnc3cc(Cl)ccc23)c(O)c1`, with > 16 µM (inactive).
For `N#Cc1cccc(NC(=O)CSc2ccc3c4c(cccc24)C(=O)c2ccccc2-3)c1`, the EC50 was 14.7 µM (inactive).
Then `COCCCNc1c2c3c(cccc3[nH]c1=O)C(=O)c1ccccc1-2`, with 4.03 µM; and `CCOCCCNc1nc2c(C)cccn2c(=O)c1/C=C1\SC(=S)N(CC(C)C)C1=O`, with > 16 µM (inactive); and `CCN1CC=C2C(C#N)=C(N)C(C#N)(C#N)C(CCc3ccccc3)C2C1` (stereo not given), with 8.02 µM.
Then `COc1ccccc1NS(=O)(=O)c1cc([N+](=O)[O-])ccc1N/N=C/c1sc(N2CCOCC2)nc1-c1ccccc1`, with 1.83 µM.
`N#C/C(=C/c1ccc(-c2ccc(S(N)(=O)=O)cc2)o1)c1nc2ccccc2s1`: the EC50 is 10 µM (inactive).
Then `COc1ccc2c(C)cc(SCC(=O)N(C)C3CCS(=O)(=O)C3)nc2c1` (stereo not given), with > 16 µM (inactive).
Then `CCN(CC)c1ccc(/C=C2/SC(=O)N(C(C)C)C2=O)o1`, with 4.26 µM; and `CN1CC=C2C(C#N)=C(N)C(C#N)(C#N)[C@H](c3ccoc3)[C@H]2C1`, with 11.2 µM (inactive); and `CCCN1CC=C2C(C#N)=C(N)C(C#N)(C#N)C(c3cccc(OC)c3OC)C2C1` (stereo not given), with 7.34 µM.
On to `N#C/C(=C\c1ccc(-c2ccc(C(=O)O)cc2)o1)c1nc2ccccc2[nH]1`, for which the EC50 was > 16 µM (inactive).
The value for `COc1ccc(CN2C(=O)/C(=C/c3ccc(-c4ccc(Cl)c(C(=O)O)c4)o3)SC2=S)cc1` was 15.4 µM (inactive); that for `Cn1cc(/C=C2\SC(=S)N(NC(=O)c3ccccc3Cl)C2=O)c2ccccc21` was > 16 µM (inactive).
For `CN(C)c1ccc(/C=C2\N=C(c3ccc(Cl)c([N+](=O)[O-])c3)NC2=O)cc1`, the EC50 was > 16 µM (inactive).
Then `O=[N+]([O-])c1ccc(N/N=C/c2ccc[nH]2)cc1`, with > 16 µM (inactive); and `COc1ccc(C(=O)/C=C/c2ccc(N(C)C)cc2)c(OC)c1`, with 6.31 µM.
Turning to `CCOCCCNc1nc2c(C)cccn2c(=O)c1/C=C1\SC(=S)N(C(C)CC)C1=O` (stereo not given), the half-maximal effective concentration (EC50) is 4.03 µM.
Then `CCN1/C(=C/c2ccc3cc(C)ccc3[n+]2CC)Sc2ccccc21`, with 1.1 µM; and `CCOC(=O)c1c(-c2ccc(C)cc2)csc1NC(=O)/C(C#N)=C/c1ccc(O)c(OC)c1`, with > 16 µM (inactive).
Then `CCOC(=O)CC1C(=O)NCCN1c1nc2ccc(C)cn2c(=O)c1/C=C1\SC(=S)N(CC(C)C)C1=O` (stereo not given), with 6.84 µM.
The value for `CCOC(=O)Cc1csc(NC(=O)c2sc3nc4c(C)cc(C)cc4cc3c2N)n1` was > 16 µM (inactive); that for `C=CCN1C(=O)/C(=C/C=C2/N(CC)c3ccc(S(=O)(=O)N(C)C)cc3N2CC)SC1=S` was > 16 µM (inactive).
Take `CCN(CC)c1ccc(/C=C(/C#N)c2nc3ccc(C)cc3[nH]2)c(OC(C)C)c1`: the EC50 is 2.87 µM.
In the case of `O=[N+]([O-])c1ccc(N/N=C/c2sc(N3CCOCC3)nc2-c2ccccc2)c(S(=O)(=O)Nc2ccccc2Cl)c1`, the EC50 is > 16 µM (inactive).
Then `COc1cc2c3nnc(-c4ccc(F)cc4)c-3cn(Cc3ccccc3)c2cc1OC`, with 2.89 µM.
The value for `CCN1CCN(C2=CC3=CC(=C(C#N)C#N)CCC3CC2)CC1` (stereo not given) was 2.79 µM.
For the compound `Cc1ccc(CNc2ccc3c(c2)OCO3)cc1`, the EC50 was > 16 µM (inactive).
Then `CSc1c(C#N)c(N)nc2sc(C(=O)c3ccc(Cl)c(Cl)c3)c(N)c12`, with > 16 µM (inactive).
Regarding `Cc1c(N=C2N=C(NC(=O)c3cccs3)c3ccccc32)c(=O)n(-c2ccccc2)n1C`, the EC50 was 13.9 µM (inactive).
Consider `Cc1cc(/C=C2/C(=O)N(C)C(=S)N2C)ccc1N1CCCC1`, for which the EC50 was 1.61 µM.
With `CN(C)c1ccc(/C=C2\C(=N)N3C(=NC2=O)Sc2cc(S(C)(=O)=O)ccc23)cc1`, the EC50 was > 16 µM (inactive).
The value for `Cc1c(-c2ccc(O)cc2)nc2nc(-c3ccccc3)c(-c3ccccc3)nn12` was 5.31 µM; that for `O=C(/C=C/c1c[nH]c2ccccc12)c1c(O)n(CCc2ccccc2)c(=O)[nH]c1=O` was > 16 µM (inactive); that for `COCCNC(=S)N/N=C/c1ccc(-c2ccc([N+](=O)[O-])cc2)o1` was > 16 µM (inactive).
The value for `COc1cc2c3nnc(-c4ccc(F)cc4)c-3cn(Cc3ccc(F)cc3)c2cc1OC` was 5.41 µM; that for `CCN(CC)c1ccc(/C=C2\SC(=O)N(C(C)C)C2=O)o1` was 4.61 µM.
For `O=c1oc2cc(O)ccc2cc1-c1nc2c(s1)CCc1ccccc1-2`, the EC50 was 10.2 µM (inactive).
Then `COc1ccc(/C=C2\C(=O)NC(=S)N2C(=O)c2ccc(F)cc2)cc1`, with > 16 µM (inactive); and `Cc1n[nH]c(C)c1N1C(=O)c2cccc3c(N4CCCCCC4)ccc(c23)C1=O`, with 9.13 µM.
In the case of `CCN1CC=C2C(C#N)=C(N)C(C#N)(C#N)[C@H](c3cccc(OC)c3OC)[C@H]2C1`, the EC50 was 3.78 µM.
As for `COc1cc(OC)c(OC)cc1/C=C1\Oc2cc(OS(C)(=O)=O)ccc2C1=O`, the EC50 is > 16 µM (inactive).
Then `COc1ccc(/C=C2\CC/C(=C\c3ccc(OC)cc3OC)C2=O)c(OC)c1`, with > 16 µM (inactive).
Then `Nc1c(C(=O)N/N=C/c2cccnc2)oc2nc(-c3ccccc3)cc(-c3ccco3)c12`, with > 16 µM (inactive).
`CN1/C(=C\C=C(/C#N)C(=O)Nc2ccccc2F)C(C)(C)c2ccccc21`: the EC50 is > 16 µM (inactive).
As for `Cc1[nH]c2ccccc2c1/C=N/Nc1ccc([N+](=O)[O-])cc1`, the EC50 was 9.3 µM.
The value for `Cc1ccc2nc(/C(C#N)=C\c3ccc(N4CCOCC4)o3)[nH]c2c1` was 3.44 µM.
Regarding `Oc1c(C=NCc2ccc(F)cc2)[nH]c2ccc(Br)c(Cl)c12`, the EC50 is > 16 µM (inactive).
Then `CCOC(=O)CC1C(=O)NCCN1c1nc2c(C)cccn2c(=O)c1/C=C1\SC(=S)N(C(C)CC)C1=O` (stereo not given), with 7.29 µM; and `CN1C=CC2=C(C#N)C(N)C(C#N)(C#N)C(c3ccccc3)C2C1` (stereo not given), with 7.42 µM.
Then `CC(=O)Nc1cccc(C(=O)/C=C/c2ccc(N(C)C)cc2)c1`, with 12.9 µM (inactive); and `CCCN(CCC)c1ccc(/C=C/c2ccc3cc(OCC)ccc3n2)cc1`, with > 16 µM (inactive).
Then `N#C/C(=C/c1ccc(-c2ccccc2)o1)c1nc(-c2cccs2)cs1`, with 0.98 µM; and `Cc1cc(N2CCCC2)ccc1/C=C1\NC(=S)N(C)C1=O`, with 9.87 µM.
On to `CC(=O)Nc1sc(/C(C#N)=C/c2ccc(Cl)c(Cl)c2)nc1-c1ccc(C)cc1`, for which the EC50 is > 16 µM (inactive).
Regarding `Cn1c(/C(C#N)=C/c2ccc(-c3ccc(S(N)(=O)=O)cc3)o2)nc2ccccc21`, the EC50 is > 16 µM (inactive).
The value for `Nc1c(C(=O)N/N=C/c2cccnc2)oc2nc(-c3ccco3)cc(-c3ccco3)c12` was > 16 µM (inactive).
The value for `CCOC(=O)/C(C#N)=C/C=C1\C=Cc2ccccc2N1CC` was > 16 µM (inactive); that for `N#C/C(=C/c1ccc(N2CCOCC2)o1)c1ccc(Cl)cc1` was 9.12 µM; that for `CCCCN1C(=O)C2(NNc3ccccc3O2)c2ccccc21` (stereo not given) was > 16 µM (inactive).
On to `CCCCNc1ccc2c3c(cccc13)C(=O)N(CCCC)C2=O`, for which the EC50 is 1.69 µM.
As to `COCCN1C(=O)/C(=C/c2ccc(N3CCCC3)cc2)SC1=S`, the EC50 was 12 µM (inactive).
Take `CN1CC=C2C(C#N)=C(N)C(C#N)(C#N)C(c3ccsc3)C2C1` (stereo not given): the EC50 was 10.4 µM (inactive).
Turning to `O=C1S/C(=C\c2ccc(N3CCOCC3)o2)C(=O)N1Cc1c(F)cccc1Cl`, the concentration for a half-maximal effect (EC50) is 0.976 µM.
As to `CCCN1C(=O)S/C(=C\c2ccc(N3CCOCC3)o2)C1=O`, the EC50 was 13.9 µM (inactive).
The value for `O=C1S/C(=C\c2ccc(N3CCOCC3)o2)C(=O)N1c1ccccc1` was 12.5 µM (inactive); that for `N#C/C(=C/c1ccc(N2CCOCC2)o1)c1ccc(Br)cc1` was 12.8 µM (inactive).
The value for `N#C/C(=C/c1ccc(N2CCCCC2)o1)C(=O)NCCc1c[nH]c2ccccc12` was 5.17 µM; that for `COc1cc2c3nnc(-c4ccccc4)c-3cn(Cc3ccccc3F)c2cc1OC` was 3.09 µM; that for `N#C/C(=C\c1ccc(N2CCOCC2)o1)C(=O)NCCc1ccccc1` was > 16 µM (inactive).
